Source: patent US20030153506A1, “Combination product comprising melagatran and factor VIIa inhibitor” (priority 2000, published 2003)

Columns and labels:
[1] = target: T1, Recombinant human factor VIIa (Homo sapiens, UniProt P08709); test: Test A: chromogenic robot method for Factor VIIa; assay type: biochemical
T1 construct: Recombinant human factor VIIa (rFVIIa, product no 407); purchased American Diagnostica Inc. product no 407 (rFVIIa); product no 4500 (rTF)
Procedure: Chromogenic Robot Method for Factor VIIa:
The chromogenic substrate Spectrozyme FVIIa, CH3SO2-D-CHA-But-Arg-pNA (pefachrome 5979 from Pentapharm, Switzerland) was purchased from American-Diagnostica Inc. (Greenwich, Conn., U.S.A.). The KM under the conditions of the assay was determined separately. Recombinant human factor VIIa (rFVIIa, product no 407) and non-lipidated recombinant human tissue-factor (rTF, product no 4500) were purchased from American Diagnostica Inc. The stock solutions of rFVIIa (1.08 mg protein dissolved with 1 mL water to 21.6 μM in 20 mM Tris-HCl, 100 mM NaCl, pH 7.4) and rTF (1 mg protein with 1.5 mL water to 19 μM in 50 mM Tris-HCl, pH 8.0, 150 mM NaCl, CHAPS (3-((3-cholamidopropyl)dimethylammoniol)-1-propanesulphonate; 10 mM) and 200 mM mannitol) were stored in 0.5 mL reagent tubes at −80° C. […] After mixing and incubation for 40 minutes at 37° C., the optical absorbance difference was read at 405 nm. The IC50 value for each compound was calculated by non-linear regression to the equation:
Where AI=the final absorbance at 405 nm in the presence of the inhibitor, A0=in the absence of inhibitor, and s the slope in the dose titration curve, which has the theoretical value of 1 for a pure competitive inhibitor. […]

Human α-thrombin = target: T2, Human α-thrombin (Homo sapiens, UniProt P00734); test: Test B: thrombin inhibition, chromogenic robotic assay; assay type: biochemical; conditions: S-2366 0.30 mmol/L, 40 min 37° C.
T2 construct: Human α-thrombin, Sigma Chemical Co. or Hematologic Technologies; purchased Sigma Chemical Co. or Hematologic Technologies
Procedure: Determination of Thrombin Inhibition with a Chromogenic, Robotic Assay
Thrombin inhibitor potency was measured with a chromogenic substrate method, in a Plato 3300 robotic microplate processor (Rosys AG, CH-8634 Hombrechtikon, Switzerland), using 96-well, half volume microtitre plates (Costar, Cambridge, Mass., U.S.A.; Cat No 3690). Stock solutions of test substance in DMSO (72 μL), 0.1-1 mmol/L, were diluted serially 1:3 (24+48 μL) with DMSO to obtain ten different concentrations, which were analysed as samples in the assay. 2 μL of test sample was diluted with 124 μL assay buffer, 12 μL of chromogenic substrate solution (S-2366, Chromogenix, Mölndal, Sweden) in assay buffer and finally 12 μL of α-thrombin solution (Human α-thrombin, Sigma Chemical Co. or Hematologic Technologies) in assay buffer, were added, and the samples mixed. The final assay concentrations were: test substance 0.00068-13.3 μmol/L, S-2366 0.30 mmol/L, α-thrombin 0.020 NIHU/mL. The linear absorbance increment during 40 minutes incubation at 37° C. was used for calculation of percentage inhibition for the test samples, as compared to blanks without inhibitor. The IC50-robotic value, corresponding to the inhibitor concentration which causes 50% inhibition of the thrombin activity, was calculated from a log concentration vs. % inhibition curve.

human plasma = test: Test C: prothrombin time (PT) assay; assay type: biochemical; conditions: Thromborel S, doubling of the clotting time
Procedure: Prothrombin Time (PT) Assay
The following reagents were prepared: An aliquot of a frozen human plasma pool, containing citrate as an anticoagulant, was rapidly thawed at 37° C. A 10 mM stock solution of the inhibitor in DMSO was diluted with saline containing 0.1% BSA to a final 1% of DMSO. Series dilutions were made in steps of 1:3 for a dose response titration. Thromborel® S from Dade Behring GmbH (Marburg, Germany), was reconstituted 1:10 with 25 mM CaCl2, according to the instructions of the manufacturer. 2.5μL of inhibitor was mixed with 22.5 μL human plasma, incubated for 1 min. at 37° C. in the cup of an Amelung KC10 microcoagulometer from Heinrich Amelung GmbH (Lemgo, Germany). Coagulation was initiated by addition of 50 μL Thromborel S, which was pre-warmed at 37° C. The time to clot was determined (CTI) for each inhibitor concentration ([I]) in duplo. A titration curve was made by plotting the inverse clotting time versus the inhibitor concentration. The IC50 value, the time to double the clotting time, was determined by non-linear regression to the equation:
CT0/CTI=1/(1+([I]/IC50)^S)
where “CT0”=the clotting time without inhibitor added, and “s” the slope.

Platelet poor plasma = test: APTT clotting time in spiked platelet poor plasma, synergy model (Berenbaum); assay type: biochemical, human; conditions: for concentration of B required to reach the same APTT prolongation as that of the mixture (Be): calculated from Eq 2; for concentration of A required to reach the same APTT prolongation as that of the mixture (Ae): calculated from Eq 1
Procedure: Human blood from healthy volunteers, both men and women, was collected in 50 mL conical plastic tubes containing 5 mL of 0.13 mol/L of buffered tri-sodium citrate. The blood was immediately chilled on ice and centrifuged at […] for 20 minutes. Platelet poor plasma was then divided into fractions of 10 mL each and “spiked” with melagatran (Compound A) or with the title compound of Example 1 above (Compound B) to a final concentration that prolonged APTT by approximately 20%, 40%, 60% and 100%, respectively.
APTT was determined as follows: 100 μL of pre-warmed APTT reagent (Stago Diagnostica) was added to 100 μL of pre-warmed plasma and incubated for 180 s at 37° C. Coagulation was initiated by the addition of 100 μL of CaCl2 (0.025 mol/L). The clotting time was measured with a KC 10 Coagulometer, coupled to a CR-A calculator, CR 10 printer and PR60 heat block (Amelung GmbH, Lemago Germany). Each clotting test was performed in duplicate and the mean clotting time was used.
APTT for Compound A and Compound B were tested at 4 different concentrations and the results are shown in Table 1, in which Cp A and Cp B are the plasma concentrations of Compounds A and B, respectively. APTT values are expressed in seconds and, within brackets, as percentage prolongation over the baseline value.
In order to test a possible synergistic effect between Compounds A and B the following model was used. The concentrations of Compounds A and B that caused about 20%, 40% and 60% prolongation of APTT were first determined (Table 1). Equipotent concentrations of Compounds A and B, e.g. 0.08 μmol/L of A and 1.5 μmol/L of B, were then mixed and APTT for the mixtures were determined as above. An indication of synergy is obtained if APTT for this mixture is longer than APTT for a “mixture” of equipotent concentrations of Compound A itself (i.e. Compound A+Compound A at a concentration that prolongs APTT by 20% (0.08 μmol/L+0.08 μmol/L=0.16 μmol/L)). However, a true synergistic effect between two compounds can never be established unless the dose response curves for both individual compounds are known and all data applied to the algebraic model of Berenbaum's equation (see Clin. Exp. Immunol. (1977) 28, 18): […]
(Cp A in mixture/Ae)+(Cp B in mixture/Be)<1
In this equation, CpA and CpB are the plasma concentrations of Compounds A and B, respectively in the mixture, and Ae and Be are individual concentrations of Compounds A and B that are required to obtain the same APTT results as that of the mixture. These concentrations can be calculated from the linear dose-responses for Compounds A and B, respectively (Equations 1 and 2).

[2] = mixture 0.08 (A) + 1.5 (B) μmol/L
[3] = mixture 0.18 (A) + 3.2 (B) μmol/L
[4] = mixture 0.27 (A) + 4.9 (B) μmol/L

T1 sequence (P08709 213-466 limits assumed): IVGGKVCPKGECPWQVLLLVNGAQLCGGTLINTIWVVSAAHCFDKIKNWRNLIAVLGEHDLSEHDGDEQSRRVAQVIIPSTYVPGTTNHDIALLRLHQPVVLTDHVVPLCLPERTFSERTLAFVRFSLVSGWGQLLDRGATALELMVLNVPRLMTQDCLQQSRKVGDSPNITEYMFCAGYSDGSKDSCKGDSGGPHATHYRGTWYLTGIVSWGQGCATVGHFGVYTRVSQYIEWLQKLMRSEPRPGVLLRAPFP
T1 sequence (P08709 61-212 limits assumed): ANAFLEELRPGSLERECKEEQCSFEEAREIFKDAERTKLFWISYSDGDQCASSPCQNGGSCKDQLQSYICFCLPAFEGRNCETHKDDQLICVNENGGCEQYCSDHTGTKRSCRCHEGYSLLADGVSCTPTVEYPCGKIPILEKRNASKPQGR
T1 sequence (P13726 33-295 partner): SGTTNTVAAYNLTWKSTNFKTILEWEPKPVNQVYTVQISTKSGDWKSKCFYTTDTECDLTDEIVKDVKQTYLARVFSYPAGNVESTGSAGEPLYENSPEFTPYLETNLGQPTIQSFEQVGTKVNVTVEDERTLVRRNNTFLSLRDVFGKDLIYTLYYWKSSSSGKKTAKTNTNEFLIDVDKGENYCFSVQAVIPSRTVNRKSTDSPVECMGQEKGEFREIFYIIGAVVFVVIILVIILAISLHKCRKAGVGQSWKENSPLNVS

CC(C)C[C@H](NC(=O)[C@H](NS(=O)(=O)Cc1cccc(C(=O)O)c1)C(C)C)C(=O)NCc1ccc(C(=N)N)cc1 [Example 1, N-[(3-Carboxybenzyl)sulfonyl]-D-valyl-N^1-{4-[amino(imino)methyl]-benzyl}-L-leucinamide]
IC50 ([1]; Test A, rFVIIa-rTF, Spectrozyme FVIIa 0.2 mM, 40 min 37° C.): 0.064 µM
selectivity for Factor VIIa ([1]; conclusion from Tests A, B and C): selective inhibitor of Factor VIIa
IC50 (Human α-thrombin): 6.2 µM
IC50 (human plasma): 3.8 µM
APTT percentage prolongation over the baseline value (Platelet poor plasma; Cp B 1.50 μmol/L): 26%
APTT (Platelet poor plasma; Cp B 1.50 μmol/L, baseline 35.7 s): 45.2 s
APTT percentage prolongation over the baseline value (Platelet poor plasma; Cp B 3.20 μmol/L): 44%
APTT (Platelet poor plasma; Cp B 3.20 μmol/L, baseline 35.7 s): 51.5 s
APTT percentage prolongation over the baseline value (Platelet poor plasma; Cp B 4.90 μmol/L): 62%
APTT (Platelet poor plasma; Cp B 4.90 μmol/L, baseline 35.7 s): 57.7 s
APTT percentage prolongation over the baseline value (Platelet poor plasma; Cp B 8.30 μmol/L): 105%
APTT (Platelet poor plasma; Cp B 8.30 μmol/L, baseline 35.7 s): 73.3 s
concentration of B required to reach the same APTT prolongation as that of the mixture (Be) (Platelet poor plasma; [2]): 3.87 µmol/L
concentration of B required to reach the same APTT prolongation as that of the mixture (Be) (Platelet poor plasma; [3]): 7.98 µmol/L
concentration of B required to reach the same APTT prolongation as that of the mixture (Be) (Platelet poor plasma; [4]): 11.80 µmol/L

N=C(N)c1ccc(CNC(=O)[C@@H]2CCN2C(=O)[C@H](NCC(=O)O)C2CCCCC2)cc1 [Compound A, HOOC—CH2—(R)Cgl-Aze-Pab-H]
APTT (Platelet poor plasma; Compound A + A, 0.08 + 0.08 = 0.16 μmol/L): 51.8 s
APTT (Platelet poor plasma; Compound A + A, 0.18 + 0.18 = 0.36 μmol/L): 62.4 s
APTT (Platelet poor plasma; Compound A + A, 0.27 + 0.27 = 0.54 μmol/L): 71.9 s
APTT percentage prolongation over the baseline value (Platelet poor plasma; Cp A 0.08 μmol/L): 24%
APTT (Platelet poor plasma; Cp A 0.08 μmol/L, baseline 36.8 s): 45.8 s
APTT percentage prolongation over the baseline value (Platelet poor plasma; Cp A 0.18 μmol/L): 46%
APTT (Platelet poor plasma; Cp A 0.18 μmol/L, baseline 36.8 s): 53.8 s
APTT percentage prolongation over the baseline value (Platelet poor plasma; Cp A 0.27 μmol/L): 61%
APTT (Platelet poor plasma; Cp A 0.27 μmol/L, baseline 36.8 s): 59.2 s
APTT percentage prolongation over the baseline value (Platelet poor plasma; Cp A 0.56 μmol/L): 96%
APTT (Platelet poor plasma; Cp A 0.56 μmol/L, baseline 36.8 s): 72.1 s
concentration of A required to reach the same APTT prolongation as that of the mixture (Ae) (Platelet poor plasma; [2]): 0.21 µmol/L
concentration of A required to reach the same APTT prolongation as that of the mixture (Ae) (Platelet poor plasma; [3]): 0.53 µmol/L
concentration of A required to reach the same APTT prolongation as that of the mixture (Ae) (Platelet poor plasma; [4]): 0.83 µmol/L
